Activity calls are given as the source filed them. No cut-off for these calls is given here.
Tests used:
[1] = test system: Haemonchus contortus; experiment: Anti-helmintic activity against fourth stage L4 Haemonchus contortus larvae assessed as induction of changes in internal structure measured on day 7 by light microscopic method; assay type: functional, organism-based
[2] = test system: Haemonchus contortus; experiment: Anti-helmintic activity against third-stage Haemonchus contortus larvae assessed as reduction in development of xL3 stage larvae to L4 stage at 100 uM after 7 days; assay type: functional, organism-based
[3] = test system: Haemonchus contortus; experiment: Anti-helmintic activity against fourth stage L4 Haemonchus contortus larvae assessed as induction of eviscerated phenotype measured on day 7 by light microscopic method; assay type: functional, organism-based
[4] = test system: Haemonchus contortus; experiment: Anti-helmintic activity against third-stage Haemonchus contortus larvae assessed as induction of eviscerated phenotype at 100 uM measured on day 7 by light microscopic analysis relative to control; assay type: functional
[5] = test system: Haemonchus contortus; experiment: Anti-helmintic activity against third-stage Haemonchus contortus larvae assessed as reduction in development of xL3 stage larvae to L4 stage at low concentration after 7 days; assay type: functional, organism-based
[6] = test system: Human immunodeficiency virus 1; experiment: Antiviral activity against HIV-1 assessed as reduction in viral replication; assay type: functional, organism-based
[7] = test system: Haemonchus contortus; experiment: Anti-helmintic activity against third-stage Haemonchus contortus larvae assessed as reduction in larval motility after 72 hrs; assay type: functional, organism-based
[8] = test system: Haemonchus contortus; experiment: Anti-helmintic activity against third-stage Haemonchus contortus larvae assessed as reduction in development of xL3 stage larvae to L4 stage after 7 days; assay type: functional, organism-based; details: 168 h
[9] = test system: Human immunodeficiency virus 1; experiment: Antiviral activity against HIV-1 assessed as reduction in viral replication at 0.1 uM; assay type: functional; parameters: scale not given: the % may be the effect or the level left
[10] = test system: Human immunodeficiency virus 1; experiment: Antiviral activity against HIV-1 NL4.3 infected in CEM-GXR T cells assessed as reduction in viral replication after 72 hrs by flow cytometry; assay type: functional, organism-based; details: Human immunodeficiency virus 1, NL4.3, CEM-GXR

Row | Structure (SMILES) | EC50 [6] | also measured
1 | CCCc1cc(=O)c2c(OC)c(OC)c3cc(OC)cc(OC)c3c2o1 | > 100 µM | Activity [1]: Active; Activity [2]: Active; Activity [3]: inactive; Activity [4]: 51%; Activity [5]: inactive; IC50 [7]: 30 µM; IC50 [8]: 31 µM
2 | CCCC(=O)c1c(O)cc(O)c2c1C(=O)c1cc(OC)c(OC)c(O)c1C2=O | > 100 µM | –
3 | O=C1c2cc(O)cc(O)c2C(=O)c2c(O)cc(O)cc21 | > 100 µM | –
4 | CCCC(=O)c1c(O)cc(O)c2c1C(=O)c1cc(OC)cc(O)c1C2=O | > 100 µM | –
5 | CCCC(=O)c1c(O)c(CNCCS(=O)(=O)O)c(O)c2c1C(=O)c1cc(OC)cc(O)c1C2=O | > 100 µM | –
6 | CC(=O)c1c(O)cc(O)c2c1C(=O)c1cc(O)cc(O)c1C2=O | > 100 µM | –
7 | CCCC(=O)c1c(O)cc(O)c2c1C(=O)c1cc(O)cc(O)c1C2=O | > 100 µM | Activity [2]: Active
8 | CCCC(=O)c1c(O)cc(O)c2c1C(=O)c1cc(OC)cc(OC)c1C2=O | > 100 µM | –
9 | COc1cc(O)c2c(c1)C(=O)c1c(C(C)=O)c(O)cc(O)c1C2=O | > 100 µM | –
10 | COc1cc(OC)c2c(c1)C(=O)c1c(C(C)=O)c(O)cc(O)c1C2=O | > 100 µM | –
11 | COc1cc(O)c2c(c1)C(=O)c1c(C(C)=O)c(O)c(CNCCS(=O)(=O)O)c(O)c1C2=O | > 100 µM | –
12 | CC(C)(C)NC(=O)[C@@H]1CN(Cc2cccnc2)CCN1C[C@@H](O)C[C@@H](Cc1ccccc1)C(=O)N[C@H]1c2ccccc2C[C@H]1O.O [INDINAVIR] | – | Activity [9]: 72%
13 | CCCc1cc(=O)c2c(O)cc3cc(O)cc(OC)c3c2o1 [COMAPARVIN] | 5.7 µM | EC50 [10]: 7.5 µM
14 | CCCc1cc(=O)c2c(O)c(OC)c3cc(O)cc(OC)c3c2o1 | > 100 µM | –
